According to patent EP0520722B1, “Therapeutic preparations containing quinazoline derivatives” (ZENECA LIMITED, priority 1991, dated 1992):
Structures can show the parent of a compound that is named as a salt.

Experiments:
receptor tyrosine kinase = target: T1, receptor tyrosine kinase (Homo sapiens, UniProt P00533); assay: Test (a): in vitro receptor tyrosine kinase inhibition assay (EGF-stimulated peptide phosphorylation, [γ-32P]ATP); type: biochemical; conditions: enzyme partially purified from A-431 cells (human vulval carcinoma); in presence of EGF; 25°C for 10 minutes
T1 construct: The supernatant, containing solubilised receptor tyrosine kinase, was stored in liquid nitrogen; endogenous in cells; host or cells: A-431 cells (human vulval carcinoma); detergent-solubilised membrane fraction
T1 sequence (P00533 25-1210): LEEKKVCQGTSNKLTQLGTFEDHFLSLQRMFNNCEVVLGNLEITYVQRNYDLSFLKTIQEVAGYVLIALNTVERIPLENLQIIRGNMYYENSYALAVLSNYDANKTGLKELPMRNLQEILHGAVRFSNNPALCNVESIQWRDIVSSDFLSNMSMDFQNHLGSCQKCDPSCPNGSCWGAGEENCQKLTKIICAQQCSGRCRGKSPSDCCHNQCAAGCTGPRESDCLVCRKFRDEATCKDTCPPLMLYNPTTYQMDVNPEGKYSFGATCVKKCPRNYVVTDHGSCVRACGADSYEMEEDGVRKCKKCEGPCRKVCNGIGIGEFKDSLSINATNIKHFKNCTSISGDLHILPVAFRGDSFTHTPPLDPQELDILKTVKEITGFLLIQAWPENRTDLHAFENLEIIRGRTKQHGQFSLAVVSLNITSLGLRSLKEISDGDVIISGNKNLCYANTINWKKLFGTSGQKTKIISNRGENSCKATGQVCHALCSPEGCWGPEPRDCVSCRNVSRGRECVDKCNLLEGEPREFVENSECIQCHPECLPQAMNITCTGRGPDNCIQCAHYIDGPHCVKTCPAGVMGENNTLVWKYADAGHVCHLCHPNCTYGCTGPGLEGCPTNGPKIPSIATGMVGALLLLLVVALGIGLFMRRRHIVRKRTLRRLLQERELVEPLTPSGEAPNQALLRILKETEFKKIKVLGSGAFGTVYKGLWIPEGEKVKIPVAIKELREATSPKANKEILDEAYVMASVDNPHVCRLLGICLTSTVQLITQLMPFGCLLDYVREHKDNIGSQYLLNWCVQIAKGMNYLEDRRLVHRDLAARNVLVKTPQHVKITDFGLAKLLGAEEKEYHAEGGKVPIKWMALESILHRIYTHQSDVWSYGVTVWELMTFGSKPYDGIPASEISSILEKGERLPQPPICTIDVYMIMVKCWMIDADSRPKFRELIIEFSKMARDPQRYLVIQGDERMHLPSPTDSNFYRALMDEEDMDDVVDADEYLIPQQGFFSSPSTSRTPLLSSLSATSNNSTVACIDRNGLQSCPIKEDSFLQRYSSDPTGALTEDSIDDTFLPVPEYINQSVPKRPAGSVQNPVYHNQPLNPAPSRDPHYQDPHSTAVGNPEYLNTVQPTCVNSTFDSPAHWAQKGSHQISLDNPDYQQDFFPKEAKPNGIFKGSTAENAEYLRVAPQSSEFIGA
Method: (a) An in vitro assay which determines the ability of a test compound to inhibit the enzyme receptor tyrosine kinase. Receptor tyrosine kinase was obtained in partially purified form from A-431 cells (derived from human vulval carcinoma) by procedures related to those described by Carpenter et al., J. Biol. Chem., 1979, 254, 4884, Cohen et al., J. Biol. Chem., 1982, 257, 1523 and by Braun et al., J. Biol. Chem., 1984, 259, 2051.
A-431 cells were grown to confluence using Dulbecco′s modified Eagle′s medium (DMEM) containing 5% fetal calf serum (FCS). The obtained cells were homogenised in a hypotonic borate/EDTA buffer at pH 10.1. The homogenate was centrifuged at 400 g for 10 minutes at 0-4°C. The supernatant was centrifuged at 25,000 g for 30 minutes at 0-4°C. The pelleted material was suspended in 30 mM Hepes buffer at pH 7.4 containing 5% glycerol, 4 mM benzamidine and 1% Triton X-100, stirred for 1 hour at 0-4°C, and recentrifuged at 100,000 g for 1 hour at 0-4°C. The supernatant, containing solubilised receptor tyrosine kinase, was stored in liquid nitrogen.
For test purposes 40 µl of the enzyme solution so obtained was added to a mixture of 400 µl of a mixture of 150 mM Hepes buffer at pH 7.4, 500 µM sodium orthovanadate, 0.1% Triton X-100, 10% glycerol, 200 µl water, 80 µl of 25 mM DTT and 80µl of a mixture of 12.5 mM manganese chloride, 125 mM magnesium chloride and distilled water. There was thus obtained the test enzyme solution.
Each test compound was dissolved in dimethylsulphoxide (DMSO) to give a 50 mM solution which was diluted with 40 mM Hepes buffer containing 0.1% Triton X-100, 10% glycerol and 10% DMSO to give a 500 µM solution. Equal volumes of this solution and a solution of epidermal growth factor (EGF; 20 µg/ml) were mixed.
[γ-^32P]ATP (3000 Ci/mM, 250 µCi) was diluted to a volume of 2 ml by the addition of a solution of ATP (100 µM) in distilled water. An equal volume of a 4 mg/ml solution of the peptide Arg-Arg-Leu-Ile-Glu-Asp-Ala-Glu-Tyr-Ala-Ala-Arg-Gly in a mixture of 40 mM Hepes buffer at pH 7.4, 0.1% Triton X-100 and 10% glycerol was added.
The test compound/EGF mixture solution (5 µl) was added to the test enzyme solution (10 µl) and the mixture was incubated at 0-4°C for 30 minutes. The ATP/peptide mixture (10 µl) was added and the mixture was incubated at 25°C for 10 minutes. […] Radioactivity present in the filter paper was measured using a liquid scintillation counter (Sequence A). […]
Receptor tyrosine kinase inhibition was calculated as follows:- % Inhibition =[…] [formula]
The extent of inhibition was then determined at a range of concentrations of test compound to give an IC50 value.

[1] = system: human naso-pharyngeal cell line KB; assay: Test (b): in vitro inhibition of EGF-stimulated growth of KB cells (MTT); type: cell-based; conditions: 72 h, EGF (10 ng/ml), incubation for 3 days
Method: (b) An in vitro assay which determines the ability of a test compound to inhibit the growth of the human naso-pharyngeal cell line KB.
KB cells were seeded into wells at a density of 1 x 10 - 1.5 x 10^4 cells per well and grown for 24 hours in DMEM supplemented with 5% FCS (charcoal-stripped). Cell growth was determined after incubation for 3 days by the extent of metabolism of MTT tetrazolium dye to furnish a bluish colour. Cell growth was then determined in the presence of EGF (10 ng/ml) or in the presence of EGF (10 ng/ml) and a test compound at a range of concentrations. An IC50 value could then be calculated.

Row | Structure (SMILES) | IC50 (receptor tyrosine kinase) | IC50 [1]
1 | Cc1cccc(Nc2ncnc3ccccc23)c1 [4-(3'-methylanilino)-quinazoline] | 0.18 µM | ~5 µM
2 | Clc1cccc(Nc2ncnc3ccccc23)c1 [4-(3'-chloroanilino)quinazoline, 4-(3′-chloroanilino)quinazoline hydrochloride] | 0.04 µM | ~5 µM
3 | Clc1cccc(Nc2ncnc3cc(Cl)ccc23)c1 [7-chloro-4-(3'-chloroanilino)quinazoline] | 0.02 µM | 1 µM
4 | Brc1cccc(Nc2ncnc3ccccc23)c1 [4-(3'-bromoanilino)quinazoline, 4-(3'-bromoanilino)quinazoline hydrochloride] | 0.02 µM | 0.78 µM
